Assay results from PMC10385834, “Curcumin Stereoisomer, Cis-Trans Curcumin, as a Novel Ligand to A1 and A3 Adenosine Receptors” (Pharmaceuticals, 2023).

Assays:
[1] = biological target: T1, A1AR (A1 adenosine receptor) (Homo sapiens, UniProt P30542); assay: competition with fluorescent ligand CA200623 on transfected CHO-K1 cells; confirmed by confocal microscopy; type: cell-based
T1 construct: gene ADORA1
T1 sequence (P30542 1-326): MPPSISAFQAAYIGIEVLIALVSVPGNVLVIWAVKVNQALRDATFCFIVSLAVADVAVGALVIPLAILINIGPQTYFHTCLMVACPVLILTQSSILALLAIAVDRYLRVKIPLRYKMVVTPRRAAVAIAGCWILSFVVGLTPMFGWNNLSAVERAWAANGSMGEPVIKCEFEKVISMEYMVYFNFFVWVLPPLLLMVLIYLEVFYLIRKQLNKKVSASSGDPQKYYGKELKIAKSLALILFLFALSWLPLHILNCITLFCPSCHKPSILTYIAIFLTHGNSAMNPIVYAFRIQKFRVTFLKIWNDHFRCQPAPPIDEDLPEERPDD

[2] = biological target: T2, A3AR (A3 adenosine receptor) (Homo sapiens, UniProt P0DMS8); assay: as above; type: cell-based
T2 construct: gene ADORA3
T2 sequence (P0DMS8 1-318): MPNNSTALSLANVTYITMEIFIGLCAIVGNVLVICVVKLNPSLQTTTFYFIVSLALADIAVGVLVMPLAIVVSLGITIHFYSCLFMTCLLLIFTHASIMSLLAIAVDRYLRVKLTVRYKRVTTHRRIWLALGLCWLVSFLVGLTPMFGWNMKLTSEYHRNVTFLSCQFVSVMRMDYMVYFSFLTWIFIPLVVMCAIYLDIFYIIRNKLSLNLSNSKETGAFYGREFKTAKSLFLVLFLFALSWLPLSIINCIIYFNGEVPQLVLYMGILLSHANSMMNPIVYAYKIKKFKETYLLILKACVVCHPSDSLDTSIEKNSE

Compound `COc1cc(/C=C\C(=O)CC(=O)/C=C/c2ccc(O)c(OC)c2)ccc1O` [CTCUR, cis-trans curcumin] has a Ki [1] of 306 nM and a Ki [2] of 400 nM.
